This note sets out measurements from publication PMC6727617, “Exploiting Designed Oxidase–Peroxygenase Mutual Benefit System for Asymmetric Cascade Reactions” (Journal of the American Chemical Society, 2019).

In assay [1] the target is T1, OleTJE (Jeotgalicoccus sp. ATCC 8456, UniProt E9NSU2).
T1 construct: gene JEM45_03820; recombinant; purified enzyme or lyophilized cell-free lysate powder
T1 sequence (E9NSU2 1-422): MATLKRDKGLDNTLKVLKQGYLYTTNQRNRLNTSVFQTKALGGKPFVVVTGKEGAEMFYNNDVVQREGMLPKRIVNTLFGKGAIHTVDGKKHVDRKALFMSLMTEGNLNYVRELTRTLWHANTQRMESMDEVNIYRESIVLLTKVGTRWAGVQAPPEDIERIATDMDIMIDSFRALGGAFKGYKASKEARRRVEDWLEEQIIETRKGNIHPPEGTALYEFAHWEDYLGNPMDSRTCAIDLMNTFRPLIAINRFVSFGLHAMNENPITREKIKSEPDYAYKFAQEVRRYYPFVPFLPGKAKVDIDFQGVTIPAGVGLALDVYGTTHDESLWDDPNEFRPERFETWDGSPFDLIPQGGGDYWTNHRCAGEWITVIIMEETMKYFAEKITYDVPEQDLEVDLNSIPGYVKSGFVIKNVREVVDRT
The assay can be described thus: GC of styrene / styrene oxide formation in coupled reaction with purified P450-BM3 SO5. Conditions: no external H2O2, H2O2 from SO5 uncoupling. The format is biochemical.

In assay [2] the target is T2, ANEH (Aspergillus niger, UniProt Q9UR30).
T2 construct: gene hyl1; recombinant, co-expressed with P450-BM3 SO5 under the same T7 promoter; lyophilized cell-free lysate powder
T2 sequence (Q9UR30 1-398): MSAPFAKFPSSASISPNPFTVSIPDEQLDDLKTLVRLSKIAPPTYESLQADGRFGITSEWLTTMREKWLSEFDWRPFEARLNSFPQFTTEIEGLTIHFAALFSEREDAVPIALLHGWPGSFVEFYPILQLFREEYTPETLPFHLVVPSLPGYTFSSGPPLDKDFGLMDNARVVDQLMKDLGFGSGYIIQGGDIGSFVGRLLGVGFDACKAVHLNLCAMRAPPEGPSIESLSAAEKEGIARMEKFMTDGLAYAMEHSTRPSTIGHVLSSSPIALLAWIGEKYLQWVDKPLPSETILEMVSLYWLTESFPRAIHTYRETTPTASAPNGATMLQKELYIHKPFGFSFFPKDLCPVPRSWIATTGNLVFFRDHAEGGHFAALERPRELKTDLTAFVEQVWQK
The assay can be described thus: one-pot cascade with lyophilized lysate powders, conversion to diol. Conditions: 50 mM PBS pH 8.0, 300 mM NaCl; epoxide formed in situ by P450-BM3 SO5. The format is biochemical.

Turning to `O=C(O)CCc1ccccc1` [1a, 3-phenyl propionic acid], in assay [1], the “GC of styrene / styrene oxide formation in coupled reaction with purified P450-B” value is “purified OleTJE was mixed with the purified SO5 variant, and tested in the model reaction”.
As for `c1ccc([C@@H]2CO2)cc1` [(R)-styrene oxide], in assay [2], the “one-pot cascade with lyophilized lysate powders, conversion to diol” value is reported as “selective hydrolytic ring-opening of the respective epoxide catalyzed by the epoxide hydrolase”.
For the compound `C=Cc1ccccc1` [styrene], the “GC of styrene / styrene oxide formation in coupled reaction with purified P450-B” value in assay [1] is listed as “OleT-Catalyzed Reaction B Supplies the Necessary Styrene from 3-Phenyl Propionic Acid”.
